Results published in ChEMBL document CHEMBL1201862, “PubChem BioAssay data set” (2004).
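The compound was tested at five concentrations on cells cultured in 96-well plates, with a 48-hour exposure period. At the GI50, growth is halved.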 The source made the active and inactive calls. No stated cut-off is given here; in the data, active = GI50 up to about 1.1 µM and inactive = higher.

How the values were obtained:
Experiment in all cases: DTP human tumour cell line panel, 48 h
A498 = test system: A498
A549 = test system: A549
HT-29 = test system: HT-29
K562 = test system: K562
MOLT-4 = test system: MOLT-4
NCI-H226 = test system: NCI-H226
OVCAR-4 = test system: OVCAR-4
SF-295 = test system: SF-295
SF-539 = test system: SF-539
SK-MEL-5 = test system: SK-MEL-5
SN12C = test system: SN12C
SR = test system: SR
SW-620 = test system: SW-620
TK-10 = test system: TK-10
CCRF-CEM = test system: CCRF-CEM
EKVX = test system: EKVX

Measured: GI50

CC1=C2CCCC2C/C(=N/Nc2ccc([N+](=O)[O-])cc2[N+](=O)[O-])CC1 (centres undefined)
inactive: A498 > 100 µM | A549 > 100 µM | HT-29 > 100 µM | K562 > 100 µM | MOLT-4 > 100 µM | NCI-H226 > 100 µM | OVCAR-4 > 100 µM | SF-295 > 100 µM | SF-539 > 100 µM | SK-MEL-5 > 100 µM | SN12C > 100 µM | SR > 100 µM | SW-620 > 100 µM | TK-10 > 100 µM

[N-]=[N+]=Nc1ccc(S(=O)(=O)Oc2cc(OS(=O)(=O)c3ccc(N=[N+]=[N-])cc3)cc(OS(=O)(=O)c3ccc(N=[N+]=[N-])cc3)c2)cc1
inactive: A498 > 100 µM | A549 > 100 µM | CCRF-CEM > 100 µM | EKVX > 100 µM | HT-29 > 100 µM | K562 > 100 µM | MOLT-4 > 100 µM | NCI-H226 > 10 µM | OVCAR-4 > 10 µM | SF-295 > 100 µM | SF-539 > 100 µM | SK-MEL-5 > 100 µM | SN12C > 10 µM | SR > 100 µM | SW-620 > 10 µM | TK-10 > 100 µM

CCN(CC)CCCN(c1cc(OC)cc2nccnc12)S(=O)(=O)c1ccc(C)cc1
inactive: A498 > 100 µM | A549 > 100 µM | CCRF-CEM 99.1 µM | EKVX > 100 µM | HT-29 > 100 µM | K562 > 100 µM | MOLT-4 74.6 µM | NCI-H226 > 100 µM | OVCAR-4 > 100 µM | SF-295 > 100 µM | SF-539 > 100 µM | SK-MEL-5 > 100 µM | SN12C > 100 µM | SR > 100 µM | SW-620 > 100 µM | TK-10 > 100 µM

N#Cc1ccccc1Nc1ccccc1S
inactive: A498 53.7 µM | A549 30.7 µM | CCRF-CEM 6.68 µM | EKVX 57.7 µM | HT-29 57.8 µM | K562 26 µM | MOLT-4 5.4 µM | NCI-H226 22.4 µM | OVCAR-4 37.9 µM | SF-295 23.9 µM | SF-539 17.7 µM | SK-MEL-5 17.9 µM | SN12C 31 µM | SR 19.3 µM | SW-620 22.1 µM | TK-10 > 100 µM

CCOc1ccc(NC(=O)CC2C(=O)Nc3ccccc3S2(=O)=O)cc1 (centres undefined)
inactive: A498 > 100 µM | A549 > 100 µM | EKVX > 100 µM | HT-29 > 100 µM | K562 > 100 µM | MOLT-4 > 100 µM | NCI-H226 34.3 µM | OVCAR-4 > 100 µM | SF-295 49.4 µM | SF-539 55.1 µM | SN12C 53.1 µM | SR > 100 µM | SW-620 > 100 µM | TK-10 > 100 µM

O=c1/c(=C/c2ccccc2[N+](=O)[O-])sc2nnc(-c3ccco3)n12
inactive: A498 > 100 µM | A549 19.8 µM | CCRF-CEM 23.1 µM | EKVX 36.2 µM | HT-29 28.1 µM | K562 50.9 µM | MOLT-4 31.6 µM | NCI-H226 23 µM | OVCAR-4 22.4 µM | SF-295 23.6 µM | SF-539 18.7 µM | SK-MEL-5 19.1 µM | SN12C 34.5 µM | SR 32.3 µM | SW-620 20.4 µM | TK-10 > 100 µM

NNC(=O)C(=O)NN=C(C(Cl)(Cl)CO)C(Cl)(Cl)CO
inactive: A498 > 100 µM | A549 > 100 µM | CCRF-CEM 19.1 µM | EKVX 40.7 µM | HT-29 37.3 µM | K562 36.7 µM | MOLT-4 21.2 µM | NCI-H226 > 100 µM | OVCAR-4 > 100 µM | SF-295 66.1 µM | SF-539 25.2 µM | SK-MEL-5 40.4 µM | SN12C > 100 µM | SR 18.6 µM | SW-620 18.4 µM | TK-10 60.3 µM

FC(F)(F)c1nc(-c2ccccc2)oc1Sc1nnc(Sc2oc(-c3ccccc3)nc2C(F)(F)F)s1
inactive: A498 98.6 µM | A549 > 100 µM | CCRF-CEM 8.97 µM | EKVX > 47.2 µM | HT-29 > 100 µM | K562 24 µM | MOLT-4 6.84 µM | OVCAR-4 14.7 µM | SF-295 > 67.1 µM | SF-539 > 69.8 µM | SK-MEL-5 14.4 µM | SN12C 39.4 µM | SR 18.5 µM | SW-620 > 60.3 µM | TK-10 > 55.8 µM

COc1cc(/C=C/c2ccc(Br)cc2)cc(OC)c1OC
inactive: A498 6.71 µM | A549 11.7 µM | CCRF-CEM 11.8 µM | EKVX 11.2 µM | HT-29 6.44 µM | K562 3.71 µM | MOLT-4 3.21 µM | NCI-H226 15.9 µM | OVCAR-4 21.3 µM | SF-295 6.73 µM | SF-539 11.4 µM | SK-MEL-5 5.9 µM | SN12C 18.7 µM | SR 16.1 µM | SW-620 7.62 µM | TK-10 21.6 µM
